From the NIST ThermoML archive (doi:10.1016/j.jct.2010.11.017)

Experiment: mn = molality of the nth substance listed, in mol/kg
Conditions: 101 kPa, Liquid; for viscosity: Capillary tube (Ostwald / Ubbelohde) method; for speed of sound: Frequency=3 MHz, Linear variable-path acoustic interferometer; for mass density: Pycnometric method

N[C@@H](Cc1c[nH]cn1)C(=O)O [L-histidine] + O
Conditions | mass density [kg/m3] | speed of sound [m/s] | viscosity [mPa·s]
293.15 K, m1 = 0.0199 | 999.39 | 1488.1 | 1.014
293.15 K, m1 = 0.0399 | 1000.54 | 1491.8 | 1.024
293.15 K, m1 = 0.0599 | 1001.69 | 1494.5 | 1.035
293.15 K, m1 = 0.0799 | 1002.84 | 1496.5 | 1.045
293.15 K, m1 = 0.1 | 1003.99 | 1497.4 | 1.056
293.15 K, m1 = 0.1199 | 1005.14 | 1497.5 | 1.066
293.15 K, m1 = 0.14 | 1006.29 | 1496.5 | 1.077
293.15 K, m1 = 0.16 | 1007.44 | 1494.8 | 1.087
298.15 K, m1 = 0.0199 | 998.22 | 1501.1 | 0.9001
298.15 K, m1 = 0.0399 | 999.37 | 1504.4 | 0.9083
298.15 K, m1 = 0.0599 | 1000.52 | 1506.8 | 0.9164
298.15 K, m1 = 0.0799 | 1001.68 | 1508.1 | 0.925
298.15 K, m1 = 0.1 | 1002.83 | 1508.6 | 0.933
298.15 K, m1 = 0.1199 | 1003.98 | 1507.9 | 0.9411
298.15 K, m1 = 0.14 | 1005.13 | 1506.5 | 0.95
298.15 K, m1 = 0.16 | 1006.28 | 1504.2 | 0.9583
303.15 K, m1 = 0.0199 | 996.83 | 1512.3 | 0.8052
303.15 K, m1 = 0.0399 | 997.99 | 1515.1 | 0.8119
303.15 K, m1 = 0.0599 | 999.14 | 1517 | 0.8187
303.15 K, m1 = 0.0799 | 1000.3 | 1517.7 | 0.8256
303.15 K, m1 = 0.1 | 1001.46 | 1518 | 0.8318
303.15 K, m1 = 0.1199 | 1002.61 | 1516.4 | 0.8383
303.15 K, m1 = 0.14 | 1003.76 | 1514.2 | 0.8451
303.15 K, m1 = 0.16 | 1004.91 | 1511.5 | 0.8513
308.15 K, m1 = 0.0199 | 995.23 | 1523.3 | 0.7255
308.15 K, m1 = 0.0399 | 996.39 | 1525.7 | 0.7309
308.15 K, m1 = 0.0599 | 997.55 | 1527.1 | 0.7362
308.15 K, m1 = 0.0799 | 998.71 | 1527.6 | 0.7415
308.15 K, m1 = 0.1 | 999.87 | 1527.2 | 0.7464
308.15 K, m1 = 0.1199 | 1001.02 | 1525.5 | 0.7515
308.15 K, m1 = 0.14 | 1002.19 | 1522.8 | 0.7568
308.15 K, m1 = 0.16 | 1003.34 | 1519.8 | 0.762
313.15 K, m1 = 0.0199 | 993.41 | 1529.9 | 0.6581
313.15 K, m1 = 0.0399 | 994.58 | 1531.9 | 0.6623
313.15 K, m1 = 0.0599 | 995.74 | 1532.8 | 0.6665
313.15 K, m1 = 0.0799 | 996.91 | 1533 | 0.6705
313.15 K, m1 = 0.1 | 998.08 | 1532.2 | 0.6745
313.15 K, m1 = 0.1199 | 999.23 | 1530.3 | 0.6788
313.15 K, m1 = 0.14 | 1000.4 | 1527.3 | 0.683
313.15 K, m1 = 0.16 | 1001.56 | 1523.7 | 0.6869
318.15 K, m1 = 0.0199 | 991.41 | 1535.7 | 0.6018
318.15 K, m1 = 0.0399 | 992.58 | 1537.3 | 0.605
318.15 K, m1 = 0.0599 | 993.75 | 1538 | 0.6082
318.15 K, m1 = 0.0799 | 994.92 | 1537.6 | 0.6114
318.15 K, m1 = 0.1 | 996.1 | 1536.3 | 0.6148
318.15 K, m1 = 0.1199 | 997.26 | 1534.1 | 0.6175
318.15 K, m1 = 0.14 | 998.44 | 1530.5 | 0.6208
318.15 K, m1 = 0.16 | 999.6 | 1526.5 | 0.6238
